Assay results from patent US9375005B2, “5-halogenopyrazole indanyl carboxamides” (BAYER CROPSCIENCE AG, priority 2012, dated 2016).

Legend:
Puccinia recondita = test: In vivo preventive test on Puccinia recondita (brown rust on wheat); details: wheat plants sprayed 24 h before contamination, grading 12 days after contamination
Experimental: Plants, used as controls, are treated with the mixture of acetone/tween/DMSO/water not containing the active material. After 24 hours, the plants are contaminated by spraying the leaves with an aqueous suspension of Puccinia recondita spores (100 000 spores per ml). […] Grading (% of efficacy) is carried out 12 days after the contamination, in comparison with the control plants.

Uromyces appendiculatus = test: In vivo preventive test on Uromyces appendiculatus (bean rust); details: bean plants sprayed 24 h before contamination, grading 11 days after contamination
Experimental: Bean plants (“Saxa” variety), sown in starter cups on a 50/50 peat soil-pozzolana substrate and grown at 24° C., are treated at the 2-leaf stage (9 cm height) by spraying with the active ingredient prepared as described above. Plants, used as controls, are treated with the mixture of acetone/tween/DMSO/water not containing the active material. After 24 hours, the plants are contaminated by spraying the leaves with an aqueous suspension of Uromyces appendiculatus spores (150 000 spores per ml). […] Grading (% of efficacy) is carried out 11 days after the contamination, in comparison with the control plants.

[1] = Measurement of log P values by HPLC on reversed phase columns (EEC directive 79/831 Annex V.A8); format: physicochemical; details: method marked [a]
Septoria tritici = test: In vivo preventive test on Septoria tritici (leaf spot on wheat); details: dose 500 ppm; wheat plants sprayed 24 h before contamination; grading 24 days after contamination
Experimental: Wheat plants (“Scipion” variety), sown in starter cups on a 50/50 peat soil-pozzolana substrate and grown at 22° C., are treated at the 1-leaf stage (10 cm height) by spraying with the active ingredient prepared as described above. Plants, used as controls, are treated with the mixture of acetone/tween/DMSO/water not containing the active material. After 24 hours, the plants are contaminated by spraying the leaves with an aqueous suspension of cryopreserved Septoria tritici spores (500 000 spores per ml). […] Grading (% of efficacy) is carried out 24 days after the contamination, in comparison with the control plants.

Pyrenophora teres = test: In vivo preventive test on Pyrenophora teres (net blotch on barley); details: barley plants sprayed 24 h before contamination, grading 14 days after contamination
Experimental: Barley plants (“Plaisant” variety), sown in starter cups on a 50/50 peat soil-pozzolana substrate and grown at 22° C., are treated at the 1-leaf stage (10 cm height) by spraying with the active ingredient prepared as described above. Plants, used as controls, are treated with the mixture of acetone/tween/DMSO/water not containing the active material. After 24 hours, the plants are contaminated by spraying the leaves with an aqueous suspension of Pyrenophora teres spores (12 000 spores per ml). The spores are collected from a 12-day-old culture. […] Grading (% of efficacy) is carried out 14 days after the contamination, in comparison with the control plants.

Sphaerotheca fuliginea = test: In vivo preventive test on Sphaerotheca fuliginea (powdery mildew on cucurbits); details: gherkin plants sprayed 24 h before contamination, grading 12 days after contamination
Experimental: Gherkin plants (“Vert petit de Paris” variety), sown in starter cups on a 50/50 peat soil-pozzolana substrate and grown at 24° C., are treated at the Z11 cotyledon stage by spraying with the active ingredient prepared as described above. Plants, used as controls, are treated with the mixture of acetone/tween/DMSO/water not containing the active material. After 24 hours, the plants are contaminated by spraying the cotyledons with an aqueous suspension of Sphaerotheca fuliginea spores (100 000 spores per ml). The spores are collected from infected plants. The contaminated to gherkin plants are incubated at about 20° C. and at 70-80% relative humidity. Grading (% of efficacy) is carried out 12 days after the contamination, in comparison with the control plants.

Alternaria brassicae = test: In vivo preventive test on Alternaria brassicae (leaf spot on radish); details: dose 500 ppm; radish plants sprayed 24 h before contamination; grading 6 days after contamination vs control plants
Experimental: Radish plants (“Pernod Clair” variety), sown in starter cups on a 50/50 peat soil-pozzolana substrate and grown at 17° C., are treated at the cotyledon stage by spraying with the active ingredient prepared as described above. Plants, used as controls, are treated with the mixture of acetone/tween/DMSO/water not containing the active material. After 24 hours, the plants are contaminated by spraying the cotyledons with an aqueous suspension of Alternaria brassicae spores (50 000 spores per ml). The spores are collected from a 15-day-old culture. […] Grading (% of efficacy) is carried out 6 days after the contamination, in comparison with the control plants.

| Structure (SMILES) | Eff. % (Puccinia recondita; dose 500 ppm) [%] | Eff. % (Uromyces appendiculatus; dose 500 ppm) [%] | logP [1] | Eff. % (Septoria tritici) [%] | Eff. % (Pyrenophora teres; dose 500 ppm) [%] | Eff. % (Sphaerotheca fuliginea; dose 500 ppm) [%] | Eff. % (Alternaria brassicae) [%] | Eff. % (Puccinia recondita; dose 100 ppm) [%] | Eff. % (Uromyces appendiculatus; dose 100 ppm) [%] | Eff. % (Sphaerotheca fuliginea; dose 100 ppm) [%] | Eff. % (Pyrenophora teres; dose 100 ppm) [%] |
| --- | --- | --- | --- | --- | --- | --- | --- | --- | --- | --- | --- |
| CC1CC2(CC2)c2cccc(NC(=S)c3c(C(F)F)nn(C)c3Cl)c21 (stereo not shown) [Example 49] | 94 | 100 | 3.85[a] | 71 | 83 |  |  |  |  |  |  |
| CC(C)C1Cc2cccc(NC(=O)c3c(C(F)F)nn(C)c3Cl)c2C1C (stereo not shown) [Example 47] | 83 | 86 | 4.68[a] | 80 |  |  |  |  |  |  |  |
| CC1CC(CC(C)(C)C)c2cccc(NC(=S)c3c(C(F)F)nn(C)c3F)c21 (stereo not shown) [Example 87] | 98 | 100 | 5.08[a] |  |  | 98 | 75 |  |  |  |  |
| CC(C)C1Cc2c(NC(=O)c3c(C(F)F)nn(C)c3Cl)cccc2C1(C)C (stereo not shown) [Example 6] | 100 | 100 | 4.95[a] |  |  | 100 | 78 |  |  |  |  |
| CCC1Cc2c(NC(=S)c3c(C(F)F)nn(C)c3F)cccc2C1(C)C (stereo not shown) [Example 106] |  |  | 4.46[a] |  |  |  |  | 100 | 94 | 89 | 80 |
| CC1CC(CC(C)(C)C)c2cccc(NC(=S)c3c(C(F)F)nn(C)c3Cl)c21 (stereo not shown) [Example 98] | 98 | 100 | 5.31[a] |  |  | 98 |  |  |  |  |  |
| CC(C)CC1CCc2c(NC(=O)c3c(C(F)F)nn(C)c3Cl)cccc21 (stereo not shown) [Example 40] | 100 | 100 | 4.87[a] |  | 80 |  | 97 |  |  |  |  |
| CCCCON=C1CCc2c(NC(=O)c3c(C(F)F)nn(C)c3Cl)cccc21 [Example 22] |  |  | 4.24[a] |  |  |  | 86 |  |  |  |  |
| CC(C)CC1CCc2c(NC(=O)c3c(C(F)F)nn(C)c3F)cccc21 (stereo not shown) [Example 41] | 97 | 100 | 4.59[a] |  |  |  | 95 |  |  |  |  |
| CC1CCc2cccc(NC(=O)c3c(C(F)F)nn(C)c3Cl)c21 (stereo not shown) [Example 31] | 100 | 100 | 3.44[a] | 80 |  |  |  |  |  |  |  |
| CC(C)C1Cc2cccc(NC(=O)c3c(C(F)F)nn(C)c3Cl)c2C1C (stereo not shown) [Example 56] | 83 | 86 | 4.68[a] | 80 |  |  |  |  |  |  |  |
| CCCON=C1CCc2c(NC(=O)c3c(C(F)F)nn(C)c3F)cccc21 [Example 28] |  |  | 3.52[a] |  |  |  | 71 |  |  |  |  |
| CC(C)CC1CCc2c(NC(=O)c3c(C(F)F)nn(C)c3Cl)cccc21 (stereo not shown) [Example 66] | 100 | 100 |  |  | 80 |  | 97 |  |  |  |  |
| CCC1Cc2cccc(NC(=O)c3c(C(F)F)nn(C)c3Cl)c2C1 (stereo not shown) [Example 30] | 100 | 100 | 4.01[a] | 70 | 83 |  |  |  |  |  |  |
| CCC1(C)CCc2c(NC(=O)c3c(C(F)F)nn(C)c3Cl)cccc21 (single isomer, unassigned) [Example 53] | 100 | 100 | 4.04[a] |  | 80 | 98 | 79 |  |  |  |  |
| CC(C)C1Cc2c(NC(=O)c3c(C(F)F)nn(C)c3Cl)cccc2C1C (stereo not shown) [Example 21] | 98 | 100 | 4.69[a] |  |  | 89 |  |  |  |  |  |
| CCC1Cc2c(NC(=S)c3c(C(F)F)nn(C)c3Cl)cccc2C1(C)C (stereo not shown) [Example 105] |  |  | 4.58[a] |  |  |  |  | 100 | 100 | 94 | 70 |
